Assay results taken from patent publication US20240158446A1, “CYCLIC COMPOUND HAVING SELECTIVE INHIBITORY ACTION ON KRAS OVER HRAS AND NRAS” (CHUGAI SEIYAKU KABUSHIKI KAISHA, priority 2021, published 2024).
Where two headings read alike, the source gives them in different places.

Experiments:
[1] = biological target: GDP-bound KRAS wild-type protein (Homo sapiens, UniProt P01116); test: Binding to KRAS by surface plasmon resonance (SPR), Single Cycle Kinetics; settings: GDP-bound KRAS wild-type protein, read-out: KRAS KD
Chain of GDP-bound KRAS wild-type protein (P01116 whole entry): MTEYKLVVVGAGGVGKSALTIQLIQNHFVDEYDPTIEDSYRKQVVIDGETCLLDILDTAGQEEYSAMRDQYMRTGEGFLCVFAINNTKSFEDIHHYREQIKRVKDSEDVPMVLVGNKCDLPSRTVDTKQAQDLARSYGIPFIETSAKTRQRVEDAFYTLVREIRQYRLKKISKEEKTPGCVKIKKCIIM

[2] = biological target: GDP-bound NRAS wild-type protein (Homo sapiens, UniProt P01111); test: Binding to NRAS by surface plasmon resonance (SPR), Single Cycle Kinetics; settings: for NRAS/KRAS (ratio of KD value for NRAS to KD value for KRAS): SPR, GDP-bound NRAS wild-type protein vs GDP-bound KRAS wild-type protein
Chain of GDP-bound NRAS wild-type protein (P01111 whole entry): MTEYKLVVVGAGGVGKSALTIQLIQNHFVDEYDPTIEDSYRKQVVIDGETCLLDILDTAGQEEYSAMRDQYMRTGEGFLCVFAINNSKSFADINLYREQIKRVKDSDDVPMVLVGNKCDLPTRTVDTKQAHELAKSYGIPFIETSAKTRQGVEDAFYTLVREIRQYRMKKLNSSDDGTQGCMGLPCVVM

[3] = biological target: GDP-bound HRAS wild-type protein (Homo sapiens, UniProt P01112); test: Binding to HRAS by surface plasmon resonance (SPR), Single Cycle Kinetics; settings: for HRAS/KRAS (ratio of KD value for HRAS to KD value for KRAS): SPR, GDP-bound HRAS wild-type protein vs GDP-bound KRAS wild-type protein
Chain of GDP-bound HRAS wild-type protein (P01112 whole entry): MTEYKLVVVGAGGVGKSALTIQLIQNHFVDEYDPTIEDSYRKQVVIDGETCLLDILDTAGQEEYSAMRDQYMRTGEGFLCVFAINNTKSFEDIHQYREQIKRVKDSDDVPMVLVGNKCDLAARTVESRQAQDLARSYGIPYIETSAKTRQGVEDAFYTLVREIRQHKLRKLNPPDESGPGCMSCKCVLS

[4] = test system: human lung cancer strain NCI-H441;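 further: cell proliferation inhibition after four days measured by CellTiter-Glo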
[5] = SPR, Single Cycle Kinetics, 1:1 binding model

| Kd ([1]; SPR, Single Cycle Kinetics) [nM] | IC50 [4] [nM] | Kd [1, 5] [nM] | Compound | NRAS/KRAS (ratio of KD value for NRAS to KD value for KRAS) [2] | HRAS/KRAS (ratio of KD value for HRAS to KD value for KRAS) [3] | NRAS/KRAS (ratio of KD value for NRAS to KD value for KRAS) ([2]; KD ratio class) | HRAS/KRAS (ratio of KD value for HRAS to KD value for KRAS) ([3]; KD ratio class) | Kd ([1]; SPR Single Cycle Kinetics, 1:1 binding model) [nM] | NRAS/KRAS (ratio of KD value with respect to GDP-bound NRAS wild-type protein to KD value with respect to KRAS) ([2]; SPR KD ratio NRAS/KRAS, class symbols) | HRAS/KRAS (ratio of KD value with respect to GDP-bound HRAS wild-type protein to KD value with respect to KRAS) ([3]; SPR KD ratio HRAS/KRAS, class symbols) |
| --- | --- | --- | --- | --- | --- | --- | --- | --- | --- | --- |
| 0.13 | 17.2 | – | CCOC[C@H]1C(=O)N[C@@H]([C@@H](C)CC)C(=O)N(C)CC(=O)N(C)[C@H]2C/C=C\CCN(C2=O)[C@@H](Cc2ccc(C)cc2)C(=O)N(C)CC(=O)N[C@@H](CCc2ccc(C(F)(F)F)c(OC)c2)C(=O)N2C[C@@H](C)C[C@H]2C(=O)NC2(CC(C)(C)C2)C(=O)N(C)[C@@H](C2CCCC2)C(=O)N(C)[C@H](C(=O)N(C)C)CC(=O)N1C [PP2505] | A (a compound having 10 or more and less than 20 is denoted as A) | B (a compound having 3 or more and less than 10 is denoted as B) | – | – | – | – | – |
| 1.2 | 80.2 | – | CCC(CC)[C@H]1C(=O)N(C)[C@H](C(=O)N(C)C)CC(=O)N(C)[C@@H](COC)C(=O)N[C@@H]([C@@H](C)CC)C(=O)N(C)CC(=O)N(C)[C@H]2C/C=C\CCN(C2=O)[C@@H](CC2CCC(F)(F)CC2)C(=O)N(C)CC(=O)N[C@@H](CCc2ccc(C(F)(F)F)c(Cl)c2)C(=O)N2C[C@@H](C)C[C@H]2C(=O)NC2(CC(C)(C)C2)C(=O)N1C [PP2454] | AA (a compound having 20 or more is denoted as AA) | A (a compound having 10 or more and less than 20 is denoted as A) | – | – | – | – | – |
| 0.7 | 36.6 | – | CCOC[C@H]1C(=O)N[C@@H]([C@@H](C)CC)C(=O)N2CCC[C@H]2C(=O)N(C)[C@H]2C/C=C\CCN(C2=O)[C@@H](Cc2ccc(C)cc2)C(=O)N(C)CC(=O)N[C@@H](CCc2ccc(C(F)(F)F)c(OC)c2)C(=O)N2C[C@@H](C)C[C@H]2C(=O)NC2(CC(C)(C)C2)C(=O)N(C)[C@@H](C2CCCC2)C(=O)N(C)[C@H](C(=O)N(C)CC)CC(=O)N1C [PP2427] | AA (a compound having 20 or more is denoted as AA) | A (a compound having 10 or more and less than 20 is denoted as A) | – | – | – | – | – |

The remaining lines, values behind:

| Compound | Kd ([1]; SPR, Single Cycle Kinetics) [nM] | IC50 [4] [nM] | Kd [1, 5] [nM] | NRAS/KRAS (ratio of KD value for NRAS to KD value for KRAS) [2] | HRAS/KRAS (ratio of KD value for HRAS to KD value for KRAS) [3] | NRAS/KRAS (ratio of KD value for NRAS to KD value for KRAS) ([2]; KD ratio class) | HRAS/KRAS (ratio of KD value for HRAS to KD value for KRAS) ([3]; KD ratio class) | Kd ([1]; SPR Single Cycle Kinetics, 1:1 binding model) [nM] | NRAS/KRAS (ratio of KD value with respect to GDP-bound NRAS wild-type protein to KD value with respect to KRAS) ([2]; SPR KD ratio NRAS/KRAS, class symbols) | HRAS/KRAS (ratio of KD value with respect to GDP-bound HRAS wild-type protein to KD value with respect to KRAS) ([3]; SPR KD ratio HRAS/KRAS, class symbols) |
| --- | --- | --- | --- | --- | --- | --- | --- | --- | --- | --- |
| CCCCCC[C@H]1C(=O)N[C@@H]([C@@H](C)CC)C(=O)N(C)CC(=O)N(C)[C@H]2C/C=C\CCN(C2=O)[C@@H](Cc2ccc(C(F)(F)F)cc2)C(=O)N(C)CC(=O)N[C@@H](CCc2ccc3sccc3c2)C(=O)N2C[C@H](OCC)C[C@H]2C(=O)NC2(CCC2)C(=O)N(C)[C@@H](C(CC)CC)C(=O)N(C)[C@H](C(=O)N(C)C)CC(=O)N1C [PP1226] | – | 106 | 2.4 | – | – | AA (a compound having 20 or more is denoted as AA) | A (a compound having 10 or more and less than 20 is denoted as A) | – | – | – |
| CCO[C@@H]1C[C@H]2C(=O)NC3(CCC3)C(=O)N(C)[C@@H](C3CCCC3)C(=O)N(C)[C@H](C(=O)N(C)C)CC(=O)N(C)[C@@H](CC(C)C)C(=O)N[C@@H]([C@@H](C)CC)C(=O)N(C)CC(=O)N(C)[C@H]3C/C=C\CCN(C3=O)[C@@H](CC3CCCCC3)C(=O)N(C)CC(=O)N[C@@H](CCc3cc(F)c(C(F)(F)F)c(F)c3)C(=O)N2C1 [PP1467, (2S,8S,12R,14S,20S,23S,27S,30S,36S,38Z)-2-(cyclohexylmethyl)-20-cyclopentyl-8-[2-[3,5-difluoro-4-(trifluoromethyl)phenyl]ethyl]-12-ethoxy-27-isobutyl-N,N,4,19,22,26,32,35-octamethyl-30-[(1S)-1-methylpropyl]-3,6,9,15,18,21,25,28,31,34,42-undecaoxo-spiro[1,4,7,10,16,19,22,26,29,32,35-undecazatricyclo[34.5.1.0^10,14]dotetracont-38-ene-17,1′-cyclobutane]-23-carboxamide] | – | 11.2 | 0.12 | – | – | A (a compound having 10 or more and less than 20 is denoted as A) | A (a compound having 10 or more and less than 20 is denoted as A) | – | – | – |
| CCO[C@@H]1C[C@H]2C(=O)NC3(COC3)C(=O)N(C)[C@@H](C3CCCC3)C(=O)N(C)[C@H](C(=O)N(C)C)CC(=O)N(C)[C@@H](CC)C(=O)N[C@@H]([C@@H](C)CC)C(=O)N(C)CC(=O)N(C)[C@H]3C/C=C\CCN(C3=O)[C@@H](Cc3ccc(C(F)(F)F)cc3)C(=O)N(C)CC(=O)N[C@@H](CCc3cc(F)c(C(F)(F)F)c(F)c3)C(=O)N2C1 [PP1278, (2S,8S,12R,14S,20S,23S,27S,30S,36S,38Z)-20-cyclopentyl-8-[2-[3,5-difluoro-4-(trifluoromethyl)phenyl]ethyl]-12-ethoxy-27-ethyl-N,N,4,19,22,26,32,35-octamethyl-30-[(1S)-1-methylpropyl]-3,6,9,15,18,21,25,28,31,34,42-undecaoxo-2-[[4-(trifluoromethyl)phenyl]methyl]spiro[1,4,7,10,16,19,22,26,29,32,35-undecazatricyclo[34.5.1.0^10,14]dotetracont-38-ene-17,3′-oxetane]-23-carboxamide] | – | 45.7 | 0.14 | – | – | A (a compound having 10 or more and less than 20 is denoted as A) | B (a compound having 3 or more and less than 10 is denoted as B) | – | – | – |
| CCO[C@@H]1C[C@H]2C(=O)NC3(CCC3)C(=O)N(C)[C@@H](C3CCCC3)C(=O)N(C)[C@H](C(=O)N3CCCCC3)CC(=O)N(C)[C@@H](CC(C)C)C(=O)N[C@@H]([C@@H](C)CC)C(=O)N(C)CC(=O)N(C)[C@H]3C/C=C\CCN(C3=O)[C@@H](Cc3ccc(C(F)(F)F)cc3)C(=O)N(C)CC(=O)N[C@@H](CCc3cc(F)c(C(F)(F)F)c(F)c3)C(=O)N2C1 [PP1290] | – | 15.4 | 0.24 | – | – | AA (a compound having 20 or more is denoted as AA) | A (a compound having 10 or more and less than 20 is denoted as A) | – | – | – |
| CCO[C@@H]1C[C@H]2C(=O)NC3(CCC3)C(=O)N(C)[C@@H](C3CCCC3)C(=O)N(C)[C@H](C(=O)N(C)C)CC(=O)N(C)[C@@H](Cc3ccccc3C#N)C(=O)N[C@@H]([C@@H](C)CC)C(=O)N(C)CC(=O)N(C)[C@H]3CCCCCN(C3=O)[C@@H](Cc3ccc(C(F)(F)F)cc3)C(=O)N(C)CC(=O)N[C@@H](CCc3cc(F)c(C(F)(F)F)c(F)c3)C(=O)N2C1 [PP1171] | 0.69 | 118 | – | B (a compound having 3 or more and less than 10 is denoted as B) | B (a compound having 3 or more and less than 10 is denoted as B) | – | – | – | – | – |
| CC[C@H](C)[C@@H]1NC(=O)[C@H](COC)N(C)C(=O)C[C@@H](C(=O)N2CCCCC2)N(C)C(=O)[C@H](C2CCCC2)N(C)C(=O)C2(CC(C)(C)C2)NC(=O)[C@@H]2C[C@@H](OC(C)C)CN2C(=O)[C@H](CCc2cc(F)c(C(F)(F)F)c(F)c2)NC(=O)CN(C)C(=O)[C@H](Cc2ccc(C(F)(F)F)cc2)N2CC/C=C\C[C@@H](C2=O)N(C)C(=O)CN(C2CC2)C1=O [PP2667] | – | 30.6 | – | – | – | – | – | 1.8 | A (a compound having 10 or more and less than 20 is denoted as A) | A (a compound having 10 or more and less than 20 is denoted as A) |
